The values that follow come from US8410112B2, “Compounds useful as inhibitors of ATR kinase” (Vertex Pharmaceuticals Incorporated, priority 2008, dated 2013).

Molecules are shown by their SMILES.

T1 sequence (Q13535 whole entry): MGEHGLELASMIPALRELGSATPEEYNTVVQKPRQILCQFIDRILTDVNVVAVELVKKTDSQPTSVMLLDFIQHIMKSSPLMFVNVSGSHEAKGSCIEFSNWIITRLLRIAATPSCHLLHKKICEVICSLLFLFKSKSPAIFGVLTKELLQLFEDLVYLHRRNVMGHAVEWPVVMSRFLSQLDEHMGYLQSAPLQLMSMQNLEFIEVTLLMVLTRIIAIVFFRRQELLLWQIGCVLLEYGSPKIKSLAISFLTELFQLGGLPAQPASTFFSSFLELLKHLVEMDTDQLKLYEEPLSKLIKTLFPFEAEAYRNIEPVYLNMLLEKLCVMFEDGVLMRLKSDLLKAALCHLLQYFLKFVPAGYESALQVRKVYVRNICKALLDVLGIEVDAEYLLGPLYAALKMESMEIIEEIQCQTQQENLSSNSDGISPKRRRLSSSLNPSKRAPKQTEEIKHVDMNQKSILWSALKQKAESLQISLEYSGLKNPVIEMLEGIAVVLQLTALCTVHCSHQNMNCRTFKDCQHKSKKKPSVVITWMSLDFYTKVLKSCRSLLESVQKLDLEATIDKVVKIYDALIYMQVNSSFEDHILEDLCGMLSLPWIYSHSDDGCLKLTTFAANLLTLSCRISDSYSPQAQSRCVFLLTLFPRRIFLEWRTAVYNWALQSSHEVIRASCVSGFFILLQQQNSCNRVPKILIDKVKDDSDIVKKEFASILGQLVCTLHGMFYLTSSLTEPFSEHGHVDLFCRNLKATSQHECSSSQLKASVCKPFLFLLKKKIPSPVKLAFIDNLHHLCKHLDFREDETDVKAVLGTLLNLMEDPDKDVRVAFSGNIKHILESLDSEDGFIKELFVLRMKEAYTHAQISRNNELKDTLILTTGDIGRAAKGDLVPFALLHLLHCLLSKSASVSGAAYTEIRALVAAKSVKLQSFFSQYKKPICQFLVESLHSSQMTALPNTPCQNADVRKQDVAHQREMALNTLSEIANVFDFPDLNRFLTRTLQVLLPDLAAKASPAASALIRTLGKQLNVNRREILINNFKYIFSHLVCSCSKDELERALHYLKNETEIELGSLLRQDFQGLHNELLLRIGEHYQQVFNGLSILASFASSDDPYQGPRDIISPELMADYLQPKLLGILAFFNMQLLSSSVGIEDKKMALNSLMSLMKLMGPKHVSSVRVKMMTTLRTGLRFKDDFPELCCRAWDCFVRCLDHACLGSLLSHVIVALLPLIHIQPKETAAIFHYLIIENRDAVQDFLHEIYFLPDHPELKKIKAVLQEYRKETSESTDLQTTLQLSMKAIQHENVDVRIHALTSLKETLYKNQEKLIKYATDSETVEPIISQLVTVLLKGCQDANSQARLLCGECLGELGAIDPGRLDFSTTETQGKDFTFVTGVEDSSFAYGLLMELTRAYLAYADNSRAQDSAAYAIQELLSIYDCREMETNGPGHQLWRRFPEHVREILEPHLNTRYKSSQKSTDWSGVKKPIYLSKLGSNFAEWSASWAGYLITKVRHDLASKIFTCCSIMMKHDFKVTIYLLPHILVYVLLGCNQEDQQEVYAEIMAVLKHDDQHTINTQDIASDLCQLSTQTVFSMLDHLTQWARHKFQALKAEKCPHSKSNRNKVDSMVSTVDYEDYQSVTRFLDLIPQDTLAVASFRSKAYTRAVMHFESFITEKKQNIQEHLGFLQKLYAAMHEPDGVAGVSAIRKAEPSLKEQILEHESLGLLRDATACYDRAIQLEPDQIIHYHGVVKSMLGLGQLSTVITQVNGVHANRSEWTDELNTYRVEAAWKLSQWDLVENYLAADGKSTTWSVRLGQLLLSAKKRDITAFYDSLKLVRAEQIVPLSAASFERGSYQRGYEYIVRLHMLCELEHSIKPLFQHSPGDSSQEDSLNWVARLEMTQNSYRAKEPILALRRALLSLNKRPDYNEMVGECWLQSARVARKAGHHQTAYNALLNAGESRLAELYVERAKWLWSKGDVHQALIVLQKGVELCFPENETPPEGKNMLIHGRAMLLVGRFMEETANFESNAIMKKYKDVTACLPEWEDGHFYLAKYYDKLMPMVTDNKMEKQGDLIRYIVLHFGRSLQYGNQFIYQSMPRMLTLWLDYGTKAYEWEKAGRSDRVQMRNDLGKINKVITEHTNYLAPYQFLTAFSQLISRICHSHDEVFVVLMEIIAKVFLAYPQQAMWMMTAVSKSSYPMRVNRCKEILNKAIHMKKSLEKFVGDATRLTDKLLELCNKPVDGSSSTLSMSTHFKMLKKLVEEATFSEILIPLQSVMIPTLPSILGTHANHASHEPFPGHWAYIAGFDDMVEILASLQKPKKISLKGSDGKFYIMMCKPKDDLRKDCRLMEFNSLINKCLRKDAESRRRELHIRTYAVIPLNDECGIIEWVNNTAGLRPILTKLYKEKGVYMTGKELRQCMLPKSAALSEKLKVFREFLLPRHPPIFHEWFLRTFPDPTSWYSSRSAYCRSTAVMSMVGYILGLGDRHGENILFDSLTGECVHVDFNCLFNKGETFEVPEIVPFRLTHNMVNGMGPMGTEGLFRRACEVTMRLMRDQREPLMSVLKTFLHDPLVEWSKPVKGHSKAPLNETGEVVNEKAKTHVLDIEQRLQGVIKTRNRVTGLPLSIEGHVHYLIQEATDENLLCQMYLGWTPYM

This assay concerns the target T1, full-length ATR (Homo sapiens, UniProt Q13535).
T1 construct: in the presence of 5 nM full-length ATR
Description: ATR Inhibition Assay (radioactive-phosphate incorporation). It counts as biochemical. The following applies: Ki(app); 5 nM full-length ATR, 10 μM ATP, 800 μM target peptide, 25° C. Summed up: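 After a 10-min pre-incubation of compound with 5 nM enzyme at 25 °C, ATP was added to start the reaction (final 10 μM [γ-33P]ATP, 800 μM peptide; Tris/HCl pH 7.5, MgCl2, DTT), which ran 24 h. Incorporated 33P was captured on phosphocellulose filters, and Ki(app) was fitted by non-linear regression.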
For the compound `CCC(=O)N1CCN(c2cnc(N)c(-c3nnc(-c4ccc(CNC)cc4)o3)n2)CC12CC2` [Compound I-363, 1-(7-(5-Amino-6-(5-(4-((methylamino)methyl)phenyl)-1,3,4-oxadiazol-2-yl)pyrazin-2-yl)-4,7-diazaspiro[2.5]octan-4-yl)propan-1-one], the Ki fell in the range of 100 to 1000 nM.
For `CC(C)C(=O)N1CCN(c2cnc(N)c(C(=O)Nc3ccccn3)n2)CC1` [Compound I-68, 3-amino-6-(4-(2-methylpropanoyl)piperazin-1-yl)-N-(pyridin-2-yl)pyrazine-2-carboxamide], the Ki fell in the range of 100 to 1000 nM.
For `CC(C)(C)C(=O)N1CC=C(c2cnc(N)c(-c3nc4ccccc4[nH]3)n2)CC1` [Compound I-214, 1-(4-(5-amino-6-(1H-benzo[d]imidazol-2-yl)pyrazin-2-yl)-5,6-dihydropyridin-1(2H)-yl)-2,2-dimethylpropan-1-one], the Ki lay in the range of 100 to 1000 nM.
The result for `Nc1ncc(C2=CCN(S(=O)(=O)c3ccsc3)CC2)nc1-c1nc2ccccc2[nH]1` [Compound I-105, 3-(1H-benzo[d]imidazol-2-yl)-5-(1-(thiophen-3-ylsulfonyl)-1,2,3,6-tetrahydropyridin-4-yl)pyrazin-2-amine] reads less than 100 nM; that for `Cc1ccc2nc(-c3nc(N4CCN(c5cccc(F)c5)CC4)cnc3N)[nH]c2c1` [Compound I-47, 5-(4-(3-fluorophenyl)piperazin-1-yl)-3-(6-methyl-1H-benzo[d]imidazol-2-yl)pyrazin-2-amine], 1000 to 10000 nM.
Take `CN(C)CC(=O)N1CC=C(c2cnc(N)c(-c3nc4ccccc4[nH]3)n2)CC1` [Compound I-186, 1-(4-(5-amino-6-(1H-benzo[d]imidazol-2-yl)pyrazin-2-yl)-5,6-dihydropyridin-1(2H)-yl)-2-(dimethylamino)ethanone]: the Ki is 100 to 1000 nM.
The result for `Nc1ncc(C2=CCN(C(=O)Cc3ccccc3)CC2)nc1-c1nc2ccccc2[nH]1` [Compound I-213, 1-(4-(5-amino-6-(1H-benzo[d]imidazol-2-yl)pyrazin-2-yl)-5,6-dihydropyridin-1(2H)-yl)-2-phenylethanone] reads 100 to 1000 nM; that for `Nc1ncc(N2CCN(C(=O)c3c(F)cccc3F)CC2)nc1C(=O)Nc1ccccn1` [Compound I-149, 3-amino-6-(4-(2,6-difluorophenylcarbonyl)piperazin-1-yl)-N-(pyridin-2-yl)pyrazine-2-carboxamide], 100 to 1000 nM; that for `CCOC(=O)N1CC=C(c2cnc(N)c(-c3nc4ccccc4[nH]3)n2)CC1` [Compound I-250, ethyl 4-(5-amino-6-(1H-benzo[d]imidazol-2-yl)pyrazin-2-yl)-5,6-dihydropyridine-1(2H)-carboxylate], 100 to 1000 nM.
For the compound `CC(C)C(=O)N1CC=C(c2cnc(N)c(-c3nc4cccnc4[nH]3)n2)CC1` [Compound I-67, 1-(4-(5-amino-6-(3H-imidazo[4,5-b]pyridin-2-yl)pyrazin-2-yl)-5,6-dihydropyridin-1(2H)-yl)-2-methylpropan-1-one], the Ki is less than 100 nM.
Regarding `CNCc1ccc(-c2nnc(-c3nc(C4=CCC(C)CC4)cnc3N)o2)cc1` (centres unmarked) [Compound I-336, 3-(5-(4-((Methylamino)methyl)phenyl)-1,3,4-oxadiazol-2-yl)-5-(4-methylcyclohex-1-enyl)pyrazin-2-amine], the Ki was 100 to 1000 nM.
`CCS(=O)(=O)N1CCN(c2cnc(N)c(C(=O)Nc3ccccn3)n2)CC1` [Compound I-55, 3-amino-6-(4-(ethylsulfonyl)piperazin-1-yl)-N-(pyridin-2-yl)pyrazine-2-carboxamide]: the Ki was in the range of 100 to 1000 nM.
`Nc1ncc(C2=CCN(C(=O)C3CCCC3)CC2)nc1-c1nc2ccccc2[nH]1` [Compound I-206, (4-(5-amino-6-(1H-benzo[d]imidazol-2-yl)pyrazin-2-yl)-5,6-dihydropyridin-1(2H)-yl)(cyclopentyl)methanone]: the Ki is 100 to 1000 nM.
On to `Nc1ncc(N2Cc3ccccc3C2=O)nc1-c1nc2ccccc2[nH]1` [Compound I-304, 2-[5-amino-6-(1H-benzimidazol-2-yl)pyrazin-2-yl]isoindolin-1-one], for which the Ki was in the range of 100 to 1000 nM.
